# Test results from PubChem BioAssay (NCI).
#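 96-well plates; 48 h exposure; 5 concentrations. Endpoints by linear interpolation between flanking doses. Not reached: highest tested concentration assigned. GI50 = concentration required for 50% inhibition of growth. TGI denotes the concentration required for complete inhibition of growth.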
# What was measured:
# Assay in all cases: DTP human tumour cell line panel, 48 h
# SN12C renal = test system: SN12C renal
# NCI-H460 lung = test system: NCI-H460 lung
# U251 CNS = test system: U251 CNS
# OVCAR-3 ovarian = test system: OVCAR-3 ovarian
# MALME-3M melanoma = test system: MALME-3M melanoma
# DU-145 prostate = test system: DU-145 prostate
# SK-OV-3 ovarian = test system: SK-OV-3 ovarian
# UACC-257 melanoma = test system: UACC-257 melanoma
# PC-3 prostate = test system: PC-3 prostate
# OVCAR-5 ovarian = test system: OVCAR-5 ovarian
# HT29 colon = test system: HT29 colon
# HCT-116 colon = test system: HCT-116 colon
# CCRF-CEM leukemia = test system: CCRF-CEM leukemia
# SW-620 colon = test system: SW-620 colon
# SF-295 CNS = test system: SF-295 CNS
# SF-268 CNS = test system: SF-268 CNS
# HCT-15 colon = test system: HCT-15 colon
# SK-MEL-28 melanoma = test system: SK-MEL-28 melanoma
# UACC-62 melanoma = test system: UACC-62 melanoma
# CAKI-1 renal = test system: CAKI-1 renal
# RXF 393 renal = test system: RXF 393 renal
# HOP-92 NSCLC = test system: HOP-92 NSCLC
# ACHN renal = test system: ACHN renal
# LOX IMVI melanoma = test system: LOX IMVI melanoma
# IGROV1 ovarian = test system: IGROV1 ovarian
# HS 578T breast = test system: HS 578T breast
# SK-MEL-5 melanoma = test system: SK-MEL-5 melanoma
# MDA-MB-231 breast = test system: MDA-MB-231 breast
# K-562 leukemia = test system: K-562 leukemia
# MDA-MB-435 = test system: MDA-MB-435
# SNB-19 CNS = test system: SNB-19 CNS
# 786-0 renal = test system: 786-0 renal
# OVCAR-4 ovarian = test system: OVCAR-4 ovarian
# TK-10 renal = test system: TK-10 renal
# NCI-H226 lung = test system: NCI-H226 lung
# SR leukemia = test system: SR leukemia
# SF-539 CNS = test system: SF-539 CNS
# COLO 205 colon = test system: COLO 205 colon
# UO-31 renal = test system: UO-31 renal
# BT-549 breast = test system: BT-549 breast
# HL-60(TB) leukemia = test system: HL-60(TB) leukemia
# MOLT-4 leukemia = test system: MOLT-4 leukemia
# SNB-75 CNS = test system: SNB-75 CNS
# HOP-62 NSCLC = test system: HOP-62 NSCLC
# KM12 colon = test system: KM12 colon
# A549 NSCLC = test system: A549 NSCLC
# NCI-H522 lung = test system: NCI-H522 lung
# T-47D breast = test system: T-47D breast
# A498 renal = test system: A498 renal
# RPMI-8226 leukemia = test system: RPMI-8226 leukemia
# MCF7 breast = test system: MCF7 breast
# NCI/ADR-RES ovarian = test system: NCI/ADR-RES ovarian
# M14 melanoma = test system: M14 melanoma
# OVCAR-8 ovarian = test system: OVCAR-8 ovarian
# SK-MEL-2 melanoma = test system: SK-MEL-2 melanoma
# NCI-H23 lung = test system: NCI-H23 lung
# HCC-2998 colon = test system: HCC-2998 colon
# EKVX NSCLC = test system: EKVX NSCLC
compound,measurement,setting,value
CCOC(=O)/C1=C(\C)N(c2ccc(C)cc2)C(=O)c2ccccc2C(=O)c2c(OC(C)=O)ccc(OC(C)=O)c21,TGI,SN12C renal,50.5 µM
same,TGI,NCI-H460 lung,47.8 µM
same,TGI,U251 CNS,97.9 µM
same,TGI,OVCAR-3 ovarian,39.3 µM
same,TGI,MALME-3M melanoma,72.6 µM
same,TGI,DU-145 prostate,> 100 µM
same,TGI,SK-OV-3 ovarian,70.9 µM
same,TGI,UACC-257 melanoma,80.7 µM
same,TGI,PC-3 prostate,> 100 µM
same,TGI,OVCAR-5 ovarian,> 100 µM
same,TGI,HT29 colon,35.7 µM
same,TGI,HCT-116 colon,35.9 µM
same,TGI,CCRF-CEM leukemia,26.2 µM
same,TGI,SW-620 colon,> 100000 nM
same,TGI,SF-295 CNS,43.2 µM
same,TGI,SF-268 CNS,> 100 µM
same,TGI,HCT-15 colon,43.9 µM
same,TGI,SK-MEL-28 melanoma,12.2 µM
same,TGI,UACC-62 melanoma,42.1 µM
same,TGI,CAKI-1 renal,38.5 µM
same,TGI,RXF 393 renal,92.9 µM
same,TGI,HOP-92 NSCLC,> 100 µM
same,TGI,ACHN renal,77.2 µM
same,TGI,LOX IMVI melanoma,41.7 µM
same,TGI,IGROV1 ovarian,36.6 µM
same,TGI,HS 578T breast,48.2 µM
same,TGI,SK-MEL-5 melanoma,> 100 µM
same,TGI,MDA-MB-231 breast,83.9 µM
same,TGI,K-562 leukemia,38.7 µM
same,TGI,MDA-MB-435,41.5 µM
same,TGI,SNB-19 CNS,90.1 µM
same,TGI,786-0 renal,> 100 µM
same,TGI,OVCAR-4 ovarian,54.2 µM
same,TGI,TK-10 renal,44.4 µM
same,TGI,NCI-H226 lung,65.7 µM
same,TGI,SR leukemia,35.7 µM
same,TGI,SF-539 CNS,69.1 µM
same,TGI,COLO 205 colon,26.3 µM
same,TGI,UO-31 renal,> 100000 nM
same,TGI,BT-549 breast,90.2 µM
same,TGI,HL-60(TB) leukemia,54.4 µM
same,TGI,MOLT-4 leukemia,21.4 µM
same,TGI,SNB-75 CNS,> 100 µM
same,TGI,HOP-62 NSCLC,87.3 µM
same,TGI,KM12 colon,40.6 µM
same,TGI,A549 NSCLC,> 100 µM
same,TGI,NCI-H522 lung,74.1 µM
same,TGI,T-47D breast,76.5 µM
same,TGI,A498 renal,> 100 µM
same,TGI,RPMI-8226 leukemia,30.3 µM
same,TGI,MCF7 breast,97.7 µM
same,TGI,NCI/ADR-RES ovarian,53.9 µM
same,TGI,M14 melanoma,54.3 µM
same,TGI,OVCAR-8 ovarian,> 100 µM
same,TGI,SK-MEL-2 melanoma,82.7 µM
same,TGI,NCI-H23 lung,71.1 µM
C=C1C(=O)O[C@H]2[C@H]1CC/C(COC(=O)c1ccc(Cl)nc1)=C\CC[C@@]1(C)O[C@@H]21,GI50,SN12C renal,2150 nM
same,TGI,SN12C renal,5.42 µM
same,GI50,NCI-H460 lung,5.19 µM
same,TGI,NCI-H460 lung,21.4 µM
same,GI50,U251 CNS,4.85 µM
same,TGI,U251 CNS,15.9 µM
same,GI50,OVCAR-3 ovarian,1030 nM
same,TGI,OVCAR-3 ovarian,2.32 µM
same,GI50,MALME-3M melanoma,2120 nM
same,TGI,MALME-3M melanoma,4.19 µM
same,GI50,DU-145 prostate,1750 nM
same,TGI,DU-145 prostate,4.01 µM
same,GI50,SK-OV-3 ovarian,14.8 µM
same,TGI,SK-OV-3 ovarian,28.5 µM
same,GI50,UACC-257 melanoma,1830 nM
same,TGI,UACC-257 melanoma,4.17 µM
same,GI50,PC-3 prostate,10.2 µM
same,TGI,PC-3 prostate,23.1 µM
same,GI50,OVCAR-5 ovarian,2950 nM
same,TGI,OVCAR-5 ovarian,9.4 µM
same,GI50,HT29 colon,1660 nM
same,TGI,HT29 colon,4.11 µM
same,GI50,HCT-116 colon,1450 nM
same,TGI,HCT-116 colon,2.84 µM
same,GI50,CCRF-CEM leukemia,1220 nM
same,TGI,CCRF-CEM leukemia,6.9 µM
same,GI50,SW-620 colon,1230 nM
same,TGI,SW-620 colon,2960 nM
same,GI50,SF-295 CNS,10.9 µM
same,TGI,SF-295 CNS,22.9 µM
same,GI50,SF-268 CNS,2620 nM
same,TGI,SF-268 CNS,9.49 µM
same,GI50,HCT-15 colon,1360 nM
same,TGI,HCT-15 colon,3.39 µM
same,GI50,SK-MEL-28 melanoma,1940 nM
same,TGI,SK-MEL-28 melanoma,4.9 µM
same,GI50,UACC-62 melanoma,1630 nM
same,TGI,UACC-62 melanoma,3.74 µM
same,GI50,RXF 393 renal,1040 nM
same,TGI,RXF 393 renal,2.31 µM
same,GI50,HOP-92 NSCLC,2180 nM
same,TGI,HOP-92 NSCLC,4.84 µM
same,GI50,ACHN renal,1680 nM
same,TGI,ACHN renal,3.6 µM
same,GI50,LOX IMVI melanoma,1580 nM
same,TGI,LOX IMVI melanoma,3.33 µM
same,GI50,IGROV1 ovarian,1430 nM
same,TGI,IGROV1 ovarian,6.2 µM
same,GI50,HS 578T breast,4.56 µM
same,TGI,HS 578T breast,36.2 µM
same,GI50,SK-MEL-5 melanoma,3.23 µM
same,TGI,SK-MEL-5 melanoma,11.1 µM
same,GI50,MDA-MB-231 breast,2400 nM
same,TGI,MDA-MB-231 breast,5.7 µM
same,GI50,K-562 leukemia,2190 nM
same,TGI,K-562 leukemia,12.2 µM
same,GI50,MDA-MB-435,2140 nM
same,TGI,MDA-MB-435,6.81 µM
same,GI50,SNB-19 CNS,7.55 µM
same,TGI,SNB-19 CNS,20.1 µM
same,GI50,786-0 renal,1750 nM
same,TGI,786-0 renal,3.53 µM
same,GI50,HCC-2998 colon,4.68 µM
same,TGI,HCC-2998 colon,18 µM
same,GI50,OVCAR-4 ovarian,4.49 µM
same,TGI,OVCAR-4 ovarian,18.4 µM
same,GI50,TK-10 renal,2860 nM
same,TGI,TK-10 renal,6.77 µM
same,GI50,NCI-H226 lung,2660 nM
same,TGI,NCI-H226 lung,6.78 µM
same,GI50,SR leukemia,658 nM
same,TGI,SR leukemia,38.8 µM
same,GI50,SF-539 CNS,1610 nM
same,TGI,SF-539 CNS,3.61 µM
same,GI50,COLO 205 colon,1740 nM
same,TGI,COLO 205 colon,3.96 µM
same,GI50,UO-31 renal,1370 nM
same,TGI,UO-31 renal,2960 nM
same,GI50,BT-549 breast,1950 nM
same,TGI,BT-549 breast,6.71 µM
same,GI50,HL-60(TB) leukemia,1570 nM
same,TGI,HL-60(TB) leukemia,4.72 µM
same,GI50,MOLT-4 leukemia,2570 nM
same,TGI,MOLT-4 leukemia,7.2 µM
same,GI50,SNB-75 CNS,12.4 µM
same,TGI,SNB-75 CNS,31.6 µM
same,GI50,HOP-62 NSCLC,11 µM
same,TGI,HOP-62 NSCLC,26.3 µM
same,GI50,KM12 colon,3.96 µM
same,TGI,KM12 colon,16.7 µM
same,GI50,A549 NSCLC,11.3 µM
same,TGI,A549 NSCLC,26.2 µM
same,GI50,NCI-H522 lung,1590 nM
same,TGI,NCI-H522 lung,3.82 µM
same,GI50,T-47D breast,1790 nM
same,TGI,T-47D breast,5.3 µM
same,GI50,A498 renal,17.8 µM
same,TGI,A498 renal,32.7 µM
same,GI50,RPMI-8226 leukemia,1580 nM
same,TGI,RPMI-8226 leukemia,4.87 µM
same,GI50,MCF7 breast,1080 nM
same,TGI,MCF7 breast,3.72 µM
same,GI50,NCI/ADR-RES ovarian,5.03 µM
same,TGI,NCI/ADR-RES ovarian,23.9 µM
same,GI50,M14 melanoma,1710 nM
same,TGI,M14 melanoma,4.02 µM
same,GI50,OVCAR-8 ovarian,3.26 µM
same,TGI,OVCAR-8 ovarian,12.7 µM
same,GI50,SK-MEL-2 melanoma,2060 nM
same,TGI,SK-MEL-2 melanoma,5.51 µM
same,GI50,EKVX NSCLC,3.41 µM
same,TGI,EKVX NSCLC,13.6 µM
same,GI50,NCI-H23 lung,3.08 µM
same,TGI,NCI-H23 lung,12.4 µM
